Results on eight cell lines are retold here after the supplement of paper PMC10307832.

Assay in all cases: relative viability (nuclei count vs DMSO), 5 days (fraction); higher = more cells survive
Compound in experiment [1]: C=CCc1cccc(/C=N/NC(=O)CN2CCN(Cc3ccccc3)CC2)c1O [PAC-1] + NC(=O)Nc1cc(-c2cccc(F)c2)sc1C(=O)N[C@H]1CCCNC1 [AZD7762] (partner 0.2 µM)
In a few lines: (§1)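 Dosing by pin tool came one day after lung cancer cell lines were seeded in 1536-well plates, using either one drug or a fixed anchor-drug dose plus five library-drug doses (not always all listed) in √10 steps. After 5 days, nuclei were counted on 4× images. Relative viability is treated-well nuclei count divided by vehicle-well nuclei count, and values are medians of duplicate plates.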

Compound in experiment [2]: C=CC(=O)N1CCC[C@@H](n2nc(-c3ccc(Oc4ccccc4)cc3)c3c(N)ncnc32)C1 [Ibrutinib] + NC(=O)Nc1cc(-c2cccc(F)c2)sc1C(=O)N[C@H]1CCCNC1 [AZD7762] (partner 0.2 µM)
Summed up:
as §1

Compound in experiment [3]: C=CC(=O)N1CCC[C@@H](n2nc(-c3ccc(Oc4ccccc4)cc3)c3c(N)ncnc32)C1 [Ibrutinib] + CS(=O)(=O)N1CCN(Cc2cc3nc(-c4cccc5[nH]ncc45)nc(N4CCOCC4)c3s2)CC1 [Pictilisib] (partner 1 µM)
In a few lines:
as §1

Compound in experiment [4]: C=CCc1cccc(/C=N/NC(=O)CN2CCN(Cc3ccccc3)CC2)c1O [PAC-1] + CC(=O)Nc1cccc(-n2c(=O)n(C3CC3)c(=O)c3c(Nc4ccc(I)cc4F)n(C)c(=O)c(C)c32)c1 [Trametinib] (partner 0.02 µM)
In a few lines:
as §1

As for NCI-H1437, the relative viability in experiment [1] (first compound 0.02 µM) is 1.11; in experiment [1] (first compound 0.06325 µM), 1.09; in experiment [1] (first compound 0.2 µM), 1.12; in experiment [1] (first compound 2 µM), 0.844; in experiment [2] (first compound 0.005 µM), 1.12; in experiment [2] (first compound 0.01581 µM), 1.12. In addition, the relative viability in experiment [2] (first compound 0.05 µM) amounted to 1.08; in experiment [2] (first compound 0.1581 µM), 1.08; in experiment [2] (first compound 0.5 µM) it was 1.16; in experiment [3] (first compound 0.005 µM), 0.346; in experiment [3] (first compound 0.01581 µM), 0.413; in experiment [3] (first compound 0.05 µM), 0.428. Moreover, the relative viability was found to be 0.359 in experiment [3] (first compound 0.1581 µM); 0.443 in experiment [3] (first compound 0.5 µM); 0.555 in experiment [4] (first compound 0.02 µM); 0.511 in experiment [4] (first compound 0.06325 µM); 0.494 in experiment [4] (first compound 0.2 µM); 0.525 in experiment [4] (first compound 2 µM).

As to PC-3 [JPC-3], the relative viability in experiment [1] (first compound 0.02 µM) came to 0.848; in experiment [1] (first compound 0.06325 µM), 0.985; in experiment [1] (first compound 0.2 µM), 0.883; in experiment [1] (first compound 2 µM) it was 0.877; in experiment [2] (first compound 0.005 µM), 0.631; in experiment [2] (first compound 0.01581 µM) it was 0.588. Moreover, the relative viability in experiment [2] (first compound 0.05 µM) was 0.478; in experiment [2] (first compound 0.5 µM) it was 0.445; in experiment [3] (first compound 0.005 µM) it was 0.621; in experiment [3] (first compound 0.01581 µM), 0.685; in experiment [3] (first compound 0.05 µM) it was 0.686; in experiment [3] (first compound 0.1581 µM) it was 0.531. In addition, the relative viability in experiment [3] (first compound 0.5 µM) came to 0.528; in experiment [4] (first compound 0.02 µM), 0.613; in experiment [4] (first compound 0.06325 µM), 0.692; in experiment [4] (first compound 0.2 µM) it was 0.711; in experiment [4] (first compound 2 µM) it was 0.726.

Regarding 201T, the relative viability amounted to 0.625 in experiment [1] (first compound 0.02 µM); 0.59 in experiment [1] (first compound 0.06325 µM); 0.571 in experiment [1] (first compound 0.2 µM); 0.567 in experiment [1] (first compound 2 µM); 0.539 in experiment [2] (first compound 0.005 µM); 0.583 in experiment [2] (first compound 0.01581 µM). Further, the relative viability amounted to 0.623 in experiment [2] (first compound 0.05 µM); 0.66 in experiment [2] (first compound 0.1581 µM); 0.553 in experiment [2] (first compound 0.5 µM); 0.581 in experiment [3] (first compound 0.005 µM); 0.704 in experiment [3] (first compound 0.01581 µM); 0.66 in experiment [3] (first compound 0.05 µM). Besides, the relative viability was 0.616 in experiment [3] (first compound 0.1581 µM); 0.598 in experiment [3] (first compound 0.5 µM); 0.732 in experiment [4] (first compound 0.02 µM); 0.717 in experiment [4] (first compound 0.06325 µM); 0.687 in experiment [4] (first compound 0.2 µM); 0.717 in experiment [4] (first compound 2 µM).

For PC-14, the relative viability was 0.382 in experiment [1] (first compound 0.02 µM); 0.322 in experiment [1] (first compound 0.06325 µM); 0.45 in experiment [1] (first compound 0.2 µM); 0.343 in experiment [1] (first compound 2 µM); 0.379 in experiment [2] (first compound 0.005 µM); 0.349 in experiment [2] (first compound 0.01581 µM). Also, the relative viability in experiment [2] (first compound 0.05 µM) stood at 0.314; in experiment [2] (first compound 0.1581 µM) it was 0.224; in experiment [2] (first compound 0.5 µM) it was 0.23; in experiment [3] (first compound 0.005 µM), 0.72; in experiment [3] (first compound 0.01581 µM) it was 0.621; in experiment [3] (first compound 0.05 µM) it was 0.558. The relative viability stood at 0.88 in experiment [3] (first compound 0.1581 µM); 0.101 in experiment [3] (first compound 0.5 µM); 0.815 in experiment [4] (first compound 0.02 µM); 0.704 in experiment [4] (first compound 0.06325 µM); 0.781 in experiment [4] (first compound 0.2 µM); 0.793 in experiment [4] (first compound 2 µM).

With RERF-LC-KJ, the relative viability in experiment [1] (first compound 0.02 µM) stood at 1.08; in experiment [1] (first compound 0.06325 µM), 0.883; in experiment [1] (first compound 0.2 µM), 0.934; in experiment [1] (first compound 2 µM) it was 1.01; in experiment [2] (first compound 0.005 µM), 0.464; in experiment [2] (first compound 0.01581 µM), 0.943. In addition, the relative viability was found to be 0.845 in experiment [2] (first compound 0.05 µM); 0.896 in experiment [2] (first compound 0.1581 µM); 0.714 in experiment [2] (first compound 0.5 µM); 0.482 in experiment [3] (first compound 0.005 µM); 0.518 in experiment [3] (first compound 0.01581 µM); 0.46 in experiment [3] (first compound 0.05 µM). In addition, the relative viability in experiment [3] (first compound 0.1581 µM) was 0.548; in experiment [3] (first compound 0.5 µM) it was 0.441; in experiment [4] (first compound 0.02 µM), 0.901; in experiment [4] (first compound 0.06325 µM), 0.91; in experiment [4] (first compound 0.2 µM), 0.791; in experiment [4] (first compound 2 µM), 0.79.

Consider HCC-15, for which the relative viability in experiment [1] (first compound 0.02 µM) is 1.34; in experiment [1] (first compound 0.06325 µM), 1.35; in experiment [1] (first compound 0.2 µM), 0.884; in experiment [1] (first compound 2 µM), 1.35; in experiment [2] (first compound 0.005 µM), 1.33; in experiment [2] (first compound 0.01581 µM), 1.25. The relative viability in experiment [2] (first compound 0.05 µM) was found to be 1.19; in experiment [2] (first compound 0.1581 µM), 1.25; in experiment [2] (first compound 0.5 µM) it was 1.4; in experiment [3] (first compound 0.005 µM), 0.646; in experiment [3] (first compound 0.01581 µM), 0.678; in experiment [3] (first compound 0.05 µM), 0.731. Also, the relative viability was determined as 0.361 in experiment [3] (first compound 0.1581 µM); 0.711 in experiment [3] (first compound 0.5 µM); 0.373 in experiment [4] (first compound 0.02 µM); 0.38 in experiment [4] (first compound 0.06325 µM); 0.419 in experiment [4] (first compound 0.2 µM); 0.41 in experiment [4] (first compound 2 µM).

Consider NCI-H1755, for which the relative viability in experiment [1] (first compound 0.02 µM) is 0.45; in experiment [1] (first compound 0.06325 µM) it was 0.45; in experiment [1] (first compound 0.2 µM) it was 0.426; in experiment [1] (first compound 2 µM) it was 0.415; in experiment [2] (first compound 0.005 µM) it was 0.45; in experiment [2] (first compound 0.01581 µM), 0.455. The relative viability was determined as 0.454 in experiment [2] (first compound 0.05 µM); 0.409 in experiment [2] (first compound 0.1581 µM); 0.453 in experiment [2] (first compound 0.5 µM); 0.418 in experiment [3] (first compound 0.005 µM); 0.421 in experiment [3] (first compound 0.01581 µM); 0.424 in experiment [3] (first compound 0.05 µM). Further, the relative viability was determined as 0.389 in experiment [3] (first compound 0.1581 µM); 0.362 in experiment [3] (first compound 0.5 µM); 0.815 in experiment [4] (first compound 0.02 µM); 0.767 in experiment [4] (first compound 0.06325 µM); 0.783 in experiment [4] (first compound 0.2 µM); 0.733 in experiment [4] (first compound 2 µM).

Turning to NCI-H441, the relative viability worked out at 0.994 in experiment [1] (first compound 0.02 µM); 1.15 in experiment [1] (first compound 0.06325 µM); 1.19 in experiment [1] (first compound 0.2 µM); 1.1 in experiment [1] (first compound 2 µM); 1.18 in experiment [2] (first compound 0.005 µM); 1.15 in experiment [2] (first compound 0.01581 µM). Besides, the relative viability turned out to be 1.22 in experiment [2] (first compound 0.05 µM); 1.28 in experiment [2] (first compound 0.1581 µM); 0.952 in experiment [2] (first compound 0.5 µM); 0.586 in experiment [3] (first compound 0.005 µM); 0.551 in experiment [3] (first compound 0.01581 µM); 0.619 in experiment [3] (first compound 0.05 µM). The relative viability stood at 0.435 in experiment [3] (first compound 0.1581 µM); 0.449 in experiment [3] (first compound 0.5 µM); 0.408 in experiment [4] (first compound 0.02 µM); 0.629 in experiment [4] (first compound 0.06325 µM); 0.482 in experiment [4] (first compound 0.2 µM); 0.411 in experiment [4] (first compound 2 µM).
